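Test compounds were applied to cells in 96-well plates for 48 hours at 5 doses. GI50 marks 50% less growth. Definition used: TGI = concentration required for complete inhibition of growth.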

Among the test systems are UACC-62 melanoma; SK-OV-3 ovarian; A549 NSCLC; HOP-62 NSCLC; SNB-75 CNS; RXF 393 renal; T-47D breast; SF-295 CNS; MDA-MB-435; HCT-116 colon.
Common to all, as to test: NCI-60 cell line screen, 48 h

In the case of `COc1cc2c3c(n(CCCN(CCO)CCO)c(=O)c2cc1OC)-c1cc2c(cc1C3=O)OCO2`, the GI50 was under 0.01 µM in the assay with UACC-62 melanoma; 2.22 µM with SK-OV-3 ovarian; 0.155 µM in the assay with A549 NSCLC; under 0.01 µM in the assay on HOP-62 NSCLC; 0.0811 µM with SNB-75 CNS; 4.46 µM in the assay on RXF 393 renal. The GI50 with T-47D breast was 0.144 µM; with SF-295 CNS, under 0.01 µM; with MDA-MB-435 it was under 0.0369 µM; in the assay on HCT-116 colon it was under 0.01 µM. Besides, the TGI in the assay with UACC-62 melanoma was 0.503 µM; with SK-OV-3 ovarian it was 34.9 µM; in the assay with A549 NSCLC, 13 µM; in the assay with SNB-75 CNS, 2.19 µM; with RXF 393 renal, over 100 µM; with T-47D breast, over 22.7 µM. Further, the results for the TGI with SF-295 CNS, in the assay with MDA-MB-435 and in the assay with HCT-116 colon were 0.288 µM, 0.842 µM and 0.0679 µM, respectively.

`Nc1c(C(=O)Nc2ccccc2Cl)sc2nc3c(cc12)C(=O)CCC3`: the GI50 was 0.789 µM in the assay on UACC-62 melanoma; 0.782 µM in the assay on SK-OV-3 ovarian; 0.648 µM with A549 NSCLC; 4.33 µM with HOP-62 NSCLC; 2.46 µM with SNB-75 CNS; 2.37 µM in the assay on RXF 393 renal. Further, the GI50 was over 40 µM with T-47D breast, 0.542 µM in the assay on SF-295 CNS, 0.137 µM with MDA-MB-435 and 54.9 µM in the assay with HCT-116 colon. The TGI was over 100 µM in the assay on UACC-62 melanoma; over 50.5 µM with SK-OV-3 ovarian; over 100 µM in the assay with A549 NSCLC; over 67.3 µM in the assay on HOP-62 NSCLC; over 84 µM with SNB-75 CNS; over 28.7 µM in the assay on RXF 393 renal. The TGI in the assay with T-47D breast is over 100 µM; in the assay on SF-295 CNS, over 27.5 µM; in the assay on MDA-MB-435, 0.349 µM; with HCT-116 colon, over 100 µM.

For the molecule `Oc1ccc(N=Nc2nccs2)c(O)c1`, the GI50 with UACC-62 melanoma was 4.6 µM; in the assay with SK-OV-3 ovarian it was 6.97 µM; in the assay on A549 NSCLC it was 5.11 µM; in the assay with HOP-62 NSCLC, 19.9 µM; in the assay on SNB-75 CNS, 14.2 µM; in the assay on RXF 393 renal it was 5.65 µM. Further, the GI50 in the assay with T-47D breast is 4.87 µM; in the assay with SF-295 CNS it was 2.73 µM; in the assay with MDA-MB-435 it was 4.77 µM; with HCT-116 colon it was 2.92 µM. The TGI in the assay on UACC-62 melanoma is 17.6 µM; in the assay on SK-OV-3 ovarian, 62.6 µM; in the assay on A549 NSCLC, 54.4 µM; in the assay with HOP-62 NSCLC, 49.8 µM; in the assay on SNB-75 CNS it was over 100 µM; in the assay on RXF 393 renal it was 30.1 µM. The TGI worked out at 40.1 µM in the assay with T-47D breast, 15.1 µM in the assay on SF-295 CNS, 31 µM in the assay with MDA-MB-435 and 8.95 µM in the assay on HCT-116 colon.

As to `NC(N)=N/N=C(\N=Nc1ccccc1)c1ccc(Cl)cc1`, the GI50 in the assay with UACC-62 melanoma was 1.13 µM; with SK-OV-3 ovarian, 3.44 µM; in the assay with A549 NSCLC it was 4.25 µM; in the assay with HOP-62 NSCLC, 5.1 µM; with SNB-75 CNS it was 4.67 µM; with RXF 393 renal it was 2.69 µM. Also, the GI50 is 2.31 µM in the assay with T-47D breast, 1.82 µM with SF-295 CNS, 1.7 µM with MDA-MB-435 and 1.7 µM with HCT-116 colon. For the same molecule, the TGI with UACC-62 melanoma was found to be 4.35 µM; in the assay on SK-OV-3 ovarian, 9.63 µM; with A549 NSCLC it was 18.5 µM; in the assay with HOP-62 NSCLC, 18.8 µM; in the assay with SNB-75 CNS it was 17.8 µM; with RXF 393 renal, 9.33 µM. Moreover, the TGI in the assay on T-47D breast is 8.17 µM; in the assay with SF-295 CNS it was 6.39 µM; in the assay on MDA-MB-435 it was 4.36 µM; with HCT-116 colon it was 3.6 µM.

With `COc1ccc(-c2nn(-c3cccc(Cl)c3)cc2-c2nc(N)[nH]c(=O)c2C#N)cc1`, the GI50 was 3.33 µM in the assay with UACC-62 melanoma; 6.56 µM with SK-OV-3 ovarian; 5.13 µM in the assay on A549 NSCLC; 10.1 µM with HOP-62 NSCLC; 2.88 µM in the assay on SNB-75 CNS; 4.51 µM in the assay with RXF 393 renal. Besides, the GI50 with T-47D breast is 6.05 µM; with SF-295 CNS it was 2.36 µM; in the assay with MDA-MB-435, 2.16 µM; in the assay on HCT-116 colon, 4.35 µM. In addition, the TGI in the assay on UACC-62 melanoma was 15.4 µM; in the assay on SK-OV-3 ovarian, 30.7 µM; in the assay with A549 NSCLC, 50.8 µM; in the assay on HOP-62 NSCLC, 26.2 µM; in the assay with SNB-75 CNS, 21.1 µM; in the assay on RXF 393 renal, 22.4 µM. In addition, the TGI in the assay with T-47D breast came out at 32.2 µM; with SF-295 CNS, 9.23 µM; in the assay on MDA-MB-435, 5.48 µM; in the assay with HCT-116 colon it was 16.2 µM.

As for `Cc1ccc2occ/c(=N\Nc3ccccc3)c2c1`, the TGI is over 100 µM with UACC-62 melanoma; over 100 µM in the assay on SK-OV-3 ovarian; over 100 µM in the assay on A549 NSCLC; over 100 µM with HOP-62 NSCLC; 63.2 µM in the assay with SNB-75 CNS; 58.9 µM in the assay on RXF 393 renal. The TGI is 30.5 µM in the assay with T-47D breast, over 100 µM in the assay with SF-295 CNS, over 100 µM in the assay on MDA-MB-435 and over 100 µM in the assay on HCT-116 colon.

`C=C1C(O)C2C(=C(C)C13CC3)C(=O)C(C)(C)C2OC` (centres undefined): the GI50 is 90.4 µM in the assay on UACC-62 melanoma; over 100 µM in the assay with SK-OV-3 ovarian; over 100 µM with A549 NSCLC; over 100 µM with HOP-62 NSCLC; over 100 µM in the assay with SNB-75 CNS; over 100 µM with RXF 393 renal. Further, the GI50 with T-47D breast was 23.1 µM; with SF-295 CNS it was over 100 µM; with MDA-MB-435, over 100 µM; with HCT-116 colon, over 100 µM. Also, the TGI in the assay with UACC-62 melanoma, in the assay on SK-OV-3 ovarian, with A549 NSCLC, with HOP-62 NSCLC, in the assay with SNB-75 CNS and with RXF 393 renal was over 100 µM each time. Moreover, the TGI with T-47D breast was 67.8 µM; in the assay with SF-295 CNS, over 100 µM; in the assay with MDA-MB-435 it was over 100 µM; with HCT-116 colon it was over 100 µM.

As for `CC1(C)N=C(N)N=C(N)N1c1cccc(OCCOc2cccc([N+](=O)[O-])c2)c1`, the GI50 in the assay with UACC-62 melanoma is 2.28 µM; with SK-OV-3 ovarian, over 56.4 µM; with A549 NSCLC, 0.561 µM; with HOP-62 NSCLC it was 31.2 µM; in the assay on SNB-75 CNS, 3.26 µM; in the assay on RXF 393 renal, 35.2 µM. In addition, the GI50 in the assay on T-47D breast is 12.6 µM; in the assay on SF-295 CNS it was 15 µM; in the assay with MDA-MB-435, 0.495 µM; in the assay with HCT-116 colon it was 0.777 µM. Moreover, the TGI with UACC-62 melanoma, in the assay with SK-OV-3 ovarian, with A549 NSCLC, with HOP-62 NSCLC, in the assay with SNB-75 CNS and in the assay with RXF 393 renal was over 100 µM throughout. Besides, the TGI with T-47D breast, with SF-295 CNS, in the assay on MDA-MB-435 and in the assay with HCT-116 colon was over 100 µM in each case.
